In general, inhibition refers to the percentage by which the read-out fell short of the control. A higher inhibition goes with a strong effect. By IC50 is commonly meant the midpoint of a concentration-inhibition curve. Lower therefore signals greater potency.

The results in this text go back to ChEMBL document CHEMBL1131542, “A potent dipeptide inhibitor of dipeptidyl peptidase IV” (Bioorg Med Chem Lett, 1998).

Each structure is given as a SMILES string. Square brackets hold non-standard residues; d marks the D form. Peptide text beside a SMILES is read from it. Tic = O=C(O)[C@@H]1Cc2ccccc2CN1

In assay [1] the target is T1, Dipeptidyl peptidase 4 (Homo sapiens, UniProt P27487). Kind of assay: Percent inhibition against Dipeptidylpeptidase IV (DPP IV) at a concentration of 10 uM.
Target sequence in this assay (P27487 whole entry, looked up): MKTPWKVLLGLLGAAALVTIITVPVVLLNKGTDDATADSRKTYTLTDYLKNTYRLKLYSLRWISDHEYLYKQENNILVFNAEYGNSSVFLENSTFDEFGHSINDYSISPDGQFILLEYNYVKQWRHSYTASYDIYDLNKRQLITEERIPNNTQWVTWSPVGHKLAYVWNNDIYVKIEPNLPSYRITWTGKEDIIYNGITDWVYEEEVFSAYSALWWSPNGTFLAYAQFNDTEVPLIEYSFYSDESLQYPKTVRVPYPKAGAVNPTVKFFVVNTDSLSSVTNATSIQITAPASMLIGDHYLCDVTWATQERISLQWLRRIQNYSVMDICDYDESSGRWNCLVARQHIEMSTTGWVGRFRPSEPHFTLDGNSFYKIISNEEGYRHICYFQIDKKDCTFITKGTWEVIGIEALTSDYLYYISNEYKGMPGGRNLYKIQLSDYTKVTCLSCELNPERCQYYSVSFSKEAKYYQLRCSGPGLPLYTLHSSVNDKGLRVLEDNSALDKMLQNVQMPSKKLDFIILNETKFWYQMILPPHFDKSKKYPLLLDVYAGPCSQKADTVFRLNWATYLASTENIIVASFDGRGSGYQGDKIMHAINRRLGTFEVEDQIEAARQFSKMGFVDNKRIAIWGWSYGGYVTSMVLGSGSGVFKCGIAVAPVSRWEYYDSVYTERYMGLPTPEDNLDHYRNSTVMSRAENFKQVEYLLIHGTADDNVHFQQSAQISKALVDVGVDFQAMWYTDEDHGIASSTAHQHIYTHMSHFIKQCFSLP
Assay [2] addresses T1, Dipeptidyl peptidase 4. As to the kind of experiment: Inhibitory concentration against Dipeptidyl peptidase IV (DPP IV).
Target sequence in this assay (P27487 whole entry): as the sequence (P27487 whole entry, looked up) above
Assay [3] concerns the target T1, Dipeptidyl peptidase 4. As to the kind of experiment: Percent inhibition of Dipeptidyl peptidase IV (DPP IV) at a concentration of 10 uM.
Target sequence in this assay (P27487 whole entry, looked up): as above
Assay [4] deals with T1, Dipeptidyl peptidase 4. Kind of assay: Percent inhibition against Dipeptidyl peptidase IV (DPP IV) at a concentration of 1 uM.
Target sequence in this assay (P27487 whole entry, looked up): as above

At Dipeptidyl peptidase 4 [1], `COc1c(O)cc2c(c1O)CN(C(=O)[C@@H](N)Cc1c[nH]c3ccccc13)[C@H](C(=O)N[C@@H](CC(CO)CO)C(=O)O)C2` came in with an inhibition of 7.7%.

As for `N[C@@H](Cc1c[nH]c2ccccc12)C(=O)N1Cc2ccccc2C[C@H]1C(=O)N[C@@H](CCC(=O)O)C(=O)O` (H-Trp-[Tic]-Glu-OH), half-maximal inhibition against Dipeptidyl peptidase 4 [2] (IC50) was put at 7 µM. The compound further registered an inhibition on Dipeptidyl peptidase 4 [3] of 62%.

In the case of `N[C@@H](Cc1c[nH]c2ccccc12)C(=O)N1Cc2ccccc2C[C@H]1C(=O)O` (H-Trp-[Tic]-OH), on Dipeptidyl peptidase 4 [2], the half-maximal inhibitory concentration (IC50) came out at 5.7 µM. At Dipeptidyl peptidase 4 [3], this compound registered an inhibition of 59%.

For the compound `N[C@@H](Cc1c[nH]c2ccccc12)C(=O)N1Cc2ccccc2C[C@H]1C(=O)N[C@@H](CO)C(=O)O` (H-Trp-[Tic]-Ser-OH), at Dipeptidyl peptidase 4 [2], the IC50 came out at 7.9 µM. Moreover, at Dipeptidyl peptidase 4 [3], the inhibition amounted to 53%.

Regarding `CC[C@H](C)[C@H](NC(=O)[C@H](Cc1c[nH]cn1)NC(=O)CNC(=O)[C@H](CCC(=O)O)NC(=O)[C@H](CCC(N)=O)NC(=O)[C@H](CC(=O)O)NC(=O)[C@H](CC(N)=O)NC(=O)[C@H](CCCN=C(N)N)NC(=O)[C@H](C)NC(=O)[C@@H]1Cc2ccccc2CN1C(=O)[C@@H](N)Cc1c[nH]c2ccccc12)C(=O)N[C@@H](CC(C)C)C(=O)N[C@@H](CCCCN)C(=O)N[C@@H](CCSC)C(=O)N[C@@H](Cc1ccccc1)C(=O)N1CCC[C@H]1C(=O)N[C@@H](CO)C(=O)N[C@H](C(=O)N[C@@H](Cc1c[nH]c2ccccc12)C(=O)N[C@@H](Cc1ccc(O)cc1)C(=O)N[C@H](C(=O)O)C(C)C)[C@@H](C)O` (H-W[Tic]ARNDQEGHILKMFPSTWYV-OH), at Dipeptidyl peptidase 4 [4], the inhibition was determined as 61%.

With `CC[C@H](C)[C@H](NC(=O)[C@H](Cc1c[nH]cn1)NC(=O)CNC(=O)[C@H](CCC(=O)O)NC(=O)[C@H](CCC(N)=O)NC(=O)[C@H](CC(=O)O)NC(=O)[C@H](CC(N)=O)NC(=O)[C@H](CCCN=C(N)N)NC(=O)[C@H](C)NC(=O)[C@@H]1Cc2ccccc2CN1C(=O)[C@@H](N)Cc1ccc(O)cc1)C(=O)N[C@@H](CC(C)C)C(=O)N[C@@H](CCCCN)C(=O)N[C@@H](CCSC)C(=O)N[C@@H](Cc1ccccc1)C(=O)N1CCC[C@H]1C(=O)N[C@@H](CO)C(=O)N[C@H](C(=O)N[C@@H](Cc1c[nH]c2ccccc12)C(=O)N[C@@H](Cc1ccc(O)cc1)C(=O)N[C@H](C(=O)O)C(C)C)[C@@H](C)O` (H-Y[Tic]ARNDQEGHILKMFPSTWYV-OH), the inhibition at Dipeptidyl peptidase 4 [4] is 12%.
